Test results: the OligoGym collection
Where “and” joins values, the source holds several entries; their conditions need not be identical. Equal entries are not always repeated. These antisense oligonucleotides have a phosphorothioate backbone; sugars and methylation of C are not fully specified.

Key:
Conditions in all cases: ASO
[1] = biological target: SELE
[2] = biological target: ERBB2
[3] = biological target: IL1R1
[4] = biological target: DUSP9
Further: test concentration or dose not given here.

## GGGCCAGAGACCCGAGGAGA
[1]
  remaining target (mRNA or protein) (fraction of control): 0.46

## GGGGAGATAAAACACAAAATG
[1]
  remaining target (mRNA or protein) (fraction of control): 0.79

## GGGTGGCACGGCAAACAG
[2]
  remaining target (mRNA or protein) (fraction of control): 0.81

## GGGTGGTATTGTTCAGCG
[2]
  remaining target (mRNA or protein) (fraction of control): 0.94

## GGTCTCGGGACTGGCAGG
[2]
  remaining target (mRNA or protein) (fraction of control): 0.68

## GTATGGAAGATTATAATATAT
[1]
  remaining target (mRNA or protein) (fraction of control): 0.59

## GTGGATGTCAGGCAGATG
[2]
  remaining target (mRNA or protein) (fraction of control): 0.86

## GTGGTTGAAGTGGAGGCA
[2]
  remaining target (mRNA or protein) (fraction of control): 0.98

## GTTCACAACTGAAAAAGAAAC
[1]
  remaining target (mRNA or protein) (fraction of control): 0.51

## GTTGGGCATCGCTCCGCT
[2]
  remaining target (mRNA or protein) (fraction of control): 0.59

## GTTTAAGGCAGCATCCTAAGA
[1]
  remaining target (mRNA or protein) (fraction of control): 0.38

## TACCCGAGAGGCACGTGAGC
[3]
  remaining target (mRNA or protein) (fraction of control): 0.75

## TATAGGAGTTTTGATGTGAA
[1]
  remaining target (mRNA or protein) (fraction of control): 0.74

## TCACCCAAAGGTTTAGGCTTG
[1]
  remaining target (mRNA or protein) (fraction of control): 0.1

## TCAGGTTTCACACCGCTG
[2]
  remaining target (mRNA or protein) (fraction of control): 0.66

## TCCTCTCTTCCAGAGCACCC
[1]
  remaining target (mRNA or protein) (fraction of control): ≥ 1

## TCGGAGCCAGCCCCTTCG
[2]
  remaining target (mRNA or protein) (fraction of control): 0.53

## TCGGCTCCTCCCGGCCGCGC
[3]
  remaining target (mRNA or protein) (fraction of control): 0.75

## TCTGAGTAACACTTTCAT
[3]
  remaining target (mRNA or protein) (fraction of control): 0.75

## TCTGGCATTTTCTCATAGTC
[3]
  remaining target (mRNA or protein) (fraction of control): 0.75

## TCTTCAGAGGGTGCGTCTAC
[3]
  remaining target (mRNA or protein) (fraction of control): 0.75

## TGAAGCAATCATGACTTCAAG
[1]
  remaining target (mRNA or protein) (fraction of control): ≥ 1 and 0.51

## TGAAGTCAGCCAAGAACAGCT
[1]
  remaining target (mRNA or protein) (fraction of control): 0.08

## TGACAACACCAGTGATGGCA
[4]
  remaining target (mRNA or protein) (fraction of control): 0.52

## TGATCCGTGATGCATGCTGT
[3]
  remaining target (mRNA or protein) (fraction of control): 0.5

## TGATGCCAGCAGAAGTCA
[2]
  remaining target (mRNA or protein) (fraction of control): 0.94

## TGCCTTTCGCGGTCTCGCTC
[3]
  remaining target (mRNA or protein) (fraction of control): 0.75

## TGGAGCTTCTGCATGAGGTA
[4]
  remaining target (mRNA or protein) (fraction of control): 0.75

## TGGGCAGGGACACCCGTGGG
[4]
  remaining target (mRNA or protein) (fraction of control): 0.79

## TGGGCGATCGGCTCCCTACA
[4]
  remaining target (mRNA or protein) (fraction of control): 0.91

## TGGTGACCTCAGGGATAAAG
[3]
  remaining target (mRNA or protein) (fraction of control): 0.75

## TGTGTCCTGCAATCGGTGGC
[3]
  remaining target (mRNA or protein) (fraction of control): 0.1

## TTCCCCAGATGCACCTGTTT
[1]
  remaining target (mRNA or protein) (fraction of control): 0.02

## TTCTGCTGCCGTCGCTTG
[2]
  remaining target (mRNA or protein) (fraction of control): 0.75

## TTGACACACTGGGTGGGC
[2]
  remaining target (mRNA or protein) (fraction of control): 0.61
